Series [1] is described as follows: Antiproliferative activity against Ar-luc mouse Adipose stromal cell measured after 3 days by celltiter-glo luminescence assay. The format is toxicity, cell-based. To be noted: Ar-luc mouse adipose stromal cells. Background: ATP-based viability assays read luminescence as a measure of living cells.
The subject of a further series is PC-3. The series is described as follows: Antiproliferative activity against human PC-3 cells measured after 3 days by celltiter-glo luminescence assay. The settings on record: PC-3, 72 h. The format is functional, cell-based.
The test system of the next series is CWR22R. The series is described as follows: Antiproliferative activity against AR-v7 positive human 22Rv1 cells measured after 3 days by celltiter-glo luminescence assay. The format is functional, cell-based.
Series [2] is described as follows: Metabolic stability in mouse liver microsomes assessed as half life incubated for 60 mins in presence of NADPH-regenerating system. The settings on record: microsomes, 1 h. The format is ADME, Microsome. (Liver microsomes are vesicles of endoplasmic reticulum, rich in cytochrome P450 enzymes.)
Series [3] in a line: Kinetic solubility of the compound in phosphate buffer at pH 6.5 after 30 mins by nephelometry. It is filed as physicochemical. To be noted: read-out: Kinetic_solubility.
Series [4] is described as follows: Partition coefficient, logD of the compound at pH 7.4 by HPLC analysis. The format is physicochemical. The settings on record: octanol/water.
The nature of series [5]: Metabolic stability in mouse liver microsomes assessed as intrinsic clearance incubated for 60 mins in presence of NADPH-regenerating system. The format is ADME, Microsome. The settings on record: microsomes, 1 h.
The nature of series [6]: Kinetic solubility of the compound in 0.01 M HCl at pH 2 after 30 mins by nephelometry. It is filed as physicochemical. To be noted: read-out: Kinetic_solubility.
For another series, the target named is T1, Papain (Carica papaya, UniProt P00784).
T1 sequence (P00784 whole entry): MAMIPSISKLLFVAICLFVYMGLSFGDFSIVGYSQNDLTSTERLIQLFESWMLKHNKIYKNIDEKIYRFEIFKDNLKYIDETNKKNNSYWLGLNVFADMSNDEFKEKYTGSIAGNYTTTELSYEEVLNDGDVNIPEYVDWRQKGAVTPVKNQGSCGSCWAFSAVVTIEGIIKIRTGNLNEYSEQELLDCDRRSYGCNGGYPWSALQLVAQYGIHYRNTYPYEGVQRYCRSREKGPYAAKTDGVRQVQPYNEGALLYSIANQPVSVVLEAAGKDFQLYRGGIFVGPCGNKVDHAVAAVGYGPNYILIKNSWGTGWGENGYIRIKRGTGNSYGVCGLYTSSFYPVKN
The series is described as follows: Inhibition of papaya papain protease activity assessed as covalent binding mode of action at 10 uM incubated for 30 mins by absorbance based analysis. To be noted: 0.5 h.

The mark [7] stands for this setting: Homo sapiens, 22Rv1, 72 h, read-out: IC50.

Here are results for 47 molecules from ChEMBL document CHEMBL5331078, “1-Benzyloxy-5-phenyltetrazole derivatives highly active against androgen receptor-dependent prostate cancer cells” (Eur J Med Chem, 2023).

Broadly, the IC50 is the midpoint of a concentration-inhibition curve. In turn, `Fc1ccc(-c2nnnn2OCc2ccc(Cl)c(Cl)c2)cc1` registered an IC50 at 3 days in series [1] of 23.4 µM. In addition, the IC50 with PC-3 was above 100 µM; in the series with CWR22R (setting [7]) it was 0.066 µM.
The corresponding values for `Fc1cccc(COn2nnnc2-c2ccc(Cl)cc2)c1` are 2.6 µM, above 100 µM and 0.012 µM.
With `FC(F)(F)c1cccc(COn2nnnc2-c2cccc(C(F)(F)F)c2)c1`, the IC50 in the series on PC-3 and in the series with CWR22R (setting [7]) was above 10 µM throughout.
On to `CC(C)(On1nnnc1-c1ccc(Cl)cc1)c1ccc(Cl)cc1`, for which the IC50 with CWR22R (setting [7]) is above 10 µM.
With `Fc1ccc(COn2nnnc2-c2ccc(Cl)cc2)cc1`, the IC50 at 3 days in series [1] stood at 5.4 µM. In addition, the IC50 with PC-3 is 25.7 µM; in the series with CWR22R (setting [7]), 0.031 µM.
The corresponding values for `FC(F)(F)c1cccc(COn2nnnc2-c2ccc(Cl)cc2)c1` are 4.9 µM, 16.8 µM and 0.261 µM.
As to `Clc1ccc(CCn2nnnc2-c2ccc(Cl)cc2)cc1`, in the series on CWR22R (setting [7]), the IC50 was above 10 µM.
In [1], `Clc1ccc(-c2nnnn2OCc2ccc(Cl)s2)cc1` showed an IC50 at 3 days above 60 µM. The IC50 in the series with PC-3 is above 100 µM; in the series with CWR22R (setting [7]), 0.131 µM.
The corresponding values for `Fc1ccc(-c2nnnn2OCc2cccc(Cl)c2)cc1` are above 60 µM, above 100 µM and 0.076 µM.
As for `Clc1cccc(COn2nnnc2-c2cccc(Cl)c2)c1`, half-maximal inhibition in [1] (IC50 at 3 days) was put at 10.6 µM. The IC50 is above 100 µM in the series with PC-3 and 0.036 µM with CWR22R (setting [7]).
The corresponding values for `Clc1ccc(COn2nnnc2-c2cccc(Cl)c2)cc1` are 36.3 µM, above 100 µM and 2.03 µM.
As to `Fc1ccc(-c2nnnn2OC(F)(F)c2ccc(Cl)cc2)cc1`, the IC50 in the series with PC-3 and in the series with CWR22R (setting [7]) was above 10 µM each time.
In series [1], `Clc1ccc(-c2nnnn2OCc2cccc(Br)c2)cc1` displayed an IC50 at 3 days above 100 µM. Besides, the IC50 with PC-3 was above 100 µM; in the series with CWR22R (setting [7]), 0.066 µM.
In series [1], `Clc1ccc(-c2nnnn2OCc2ccc(Br)cc2)cc1` yielded an IC50 at 3 days of 13.8 µM. Further, the IC50 came to 52.1 µM in the series on PC-3 and 0.023 µM with CWR22R (setting [7]).
With `Fc1ccc(-c2nnnn2OCCc2ccc(Cl)cc2)cc1`, in the series with CWR22R (setting [7]), the IC50 was above 10 µM.
With `Clc1ccc(-c2nnnn2OCc2ccccc2)cc1`, the IC50 in the series on PC-3 was 0.566 µM; in the series with CWR22R (setting [7]), 0.04 µM.
Consider `Clc1ccc(-c2nnnn2OCc2ccc(Cl)c(Cl)c2)cc1`, for which, in [1], the IC50 at 3 days is above 60 µM. Moreover, the IC50 in the series with PC-3 was above 60 µM; with CWR22R (setting [7]), 0.1 µM.
`Clc1cccc(COn2nnnc2-c2cccnc2)c1`: the IC50 in the series on PC-3 was above 10 µM; in the series on CWR22R (setting [7]), 3.55 µM.
For orientation: logD means lipophilicity at a set pH, counting ionised and neutral species. For the molecule `Clc1ccc(-c2nnnn2OCc2cccc(Cl)c2)cc1`, the IC50 at 3 days in series [1] was above 60 µM. The t1/2 in series [2] was determined as 2.45 h. Also, the solubility kinetic at 0.5 h in series [3] and in series [6] was below 1.6 µg/mL each time. The IC50 was found to be 6.79 µM in the series with PC-3 and 0.073 µM in the series with CWR22R (setting [7]). Also, in series [4], the log distribution coefficient (logD) is 4.5. Moreover, the CLH in series [5] is 147 µL/min/mg.
As to `Fc1ccc(CO/N=C\c2ccc(Cl)cc2)cc1`, the IC50 in the series with PC-3 and with CWR22R (setting [7]) was above 10 µM in each case.
`Fc1ccc(-c2nnnn2OCc2ccnc(Cl)c2)cc1` showed a half-inhibitory concentration (IC50) at 3 days in series [1] of 15 µM. The IC50 is above 100 µM in the series on PC-3 and 0.5 µM in the series on CWR22R (setting [7]).
Regarding `Clc1ccc(COn2nnnc2-c2cccnc2)cc1`, in the series on CWR22R (cwr22r), the IC50 result is recorded as “Not Active”.
As for `O=C(Nn1nnnc1-c1ccccc1)c1ccc(Cl)cc1`, the IC50 in the series on CWR22R (setting [7]) was above 10 µM.
For `Clc1ccc(-c2nnnn2OCC2CC2)cc1`, the IC50 in the series with PC-3 and in the series on CWR22R (setting [7]) was above 10 µM throughout.
For the molecule `Cc1nn(C)c(Cl)c1-c1nnnn1OCc1ccc(Cl)cc1`, the IC50 entry in the series on CWR22R (cwr22r) is on record as “Not Active”.
With `Clc1ccc(/C=N\OCc2ccc(Cl)cc2)cc1`, the IC50 in the series on PC-3 and in the series on CWR22R (setting [7]) was above 10 µM each time.
In the case of `CC(On1nnnc1-c1ccc(Cl)cc1)c1ccc(Cl)cc1` (stereo not drawn), the 50% inhibitory concentration (IC50) is above 10 µM in the series with PC-3 and 1.71 µM with CWR22R (setting [7]).
For the molecule `Fc1ccc(-c2nnnn2OCc2ccc(Cl)s2)cc1`, in series [1], the IC50 at 3 days was above 100 µM. Also, the IC50 was above 100 µM in the series with PC-3 and 3.75 µM in the series on CWR22R (setting [7]).
On to `Clc1ccc(-c2nnnn2OCc2ccc(Cl)nc2)cc1`, for which the IC50 at 3 days in series [1] was found to be 3 µM. Besides, the IC50 in the series with PC-3 was above 100 µM; in the series on CWR22R (setting [7]) it was 0.391 µM.
In the case of `Clc1ccc(COn2nnnc2-c2ccc(Cl)cc2Cl)cc1`, the IC50 at 3 days in [1] was above 100 µM. Moreover, the IC50 with PC-3 is above 100 µM; with CWR22R (setting [7]), 3.79 µM.
As for `Clc1ccc(CCOn2nnnc2-c2ccc(Cl)cc2)cc1`, the IC50 with CWR22R (setting [7]) was above 10 µM.
As for `Fc1ccc(On2nnnc2-c2ccc(Cl)cc2)cc1`, the 50% inhibitory concentration (IC50) with PC-3 and in the series with CWR22R (setting [7]) was above 10 µM in each case.
As for `COc1ccc(-c2nnnn2OCc2ccc(Cl)cc2)cc1`, in series [1], the IC50 at 3 days is 22.9 µM. The IC50 in the series with PC-3 amounted to 30.2 µM; in the series on CWR22R (setting [7]), 0.025 µM.
Consider `Clc1ccc(On2nnnc2-c2ccc(Cl)cc2)cc1`, for which the IC50 in the series on PC-3 and with CWR22R (setting [7]) was above 10 µM throughout.
In series [1], `Fc1ccc(-c2nnnn2OCc2ccc(Cl)cc2)cc1` yielded an IC50 at 3 days above 100 µM. Moreover, the “inhibition (INH)” value at Papain was “Not Active”. Moreover, the IC50 in the series on PC-3 was determined as 47.4 µM; in the series with CWR22R (setting [7]) it was 0.74 µM.
`COc1ccc(-c2nnnn2OC(F)(F)c2ccccc2)cc1`: the IC50 in the series with PC-3 was above 10 µM; with CWR22R (setting [7]), 5.41 µM.
With `FC(F)(On1nnnc1-c1ccc(Cl)cc1)c1ccccc1`, on Papain, the “inhibition (INH)” value was “Not Active”. For the same molecule, the IC50 with PC-3 and with CWR22R (setting [7]) was above 10 µM in each case.
`COc1ccc(COn2nnnc2-c2ccc(Cl)cc2)cc1`: the IC50 in the series with PC-3 and with CWR22R (setting [7]) was above 10 µM throughout.
On to `CNC(=O)c1ccc(N2C(=S)N(c3ccc(C#N)c(C(F)(F)F)c3)C(=O)C2(C)C)cc1F` [ENZALUTAMIDE], for which the IC50 amounted to 42 µM with PC-3 and 36 µM in the series with CWR22R (setting [7]).
For the molecule `Cc1nn(C)c(Cl)c1-c1nnnn1OCc1cccc(Cl)c1`, the IC50 entry in the series with CWR22R (cwr22r) is listed as “Not Active”.
In the case of `Fc1ccc(On2nnnc2-c2ccc(F)cc2)cc1`, the IC50 with PC-3 and in the series on CWR22R (setting [7]) was above 10 µM throughout.
Regarding `Clc1ccc(-c2nnnn2OCC2CCCCC2)cc1`, the IC50 with PC-3 and in the series with CWR22R (setting [7]) was above 10 µM each time.
As for `CC(C)(c1ccc(Cl)cc1)n1nnnc1-c1ccc(Cl)cc1`, the IC50 in the series on CWR22R (setting [7]) was above 10 µM.
In series [1], `COc1ccc(-c2nnnn2OCc2cccc(Cl)c2)cc1` displayed an IC50 at 3 days of 6.8 µM. Moreover, the IC50 in the series on PC-3 is above 100 µM; with CWR22R (setting [7]), 0.023 µM.
The corresponding values for `Clc1ccc(-c2nnnn2OCc2ccnc(Cl)c2)cc1` are 7 µM, 14.2 µM and 0.022 µM.
The corresponding values for `Clc1cccc(COn2nnnc2-c2ccc(Cl)cc2Cl)c1` are above 100 µM, above 100 µM and 0.4 µM.
For `COc1ccc(COn2nnnc2-c2ccc(OC)cc2)cc1`, the IC50 is above 10 µM in the series on PC-3 and 9.1 µM in the series on CWR22R (setting [7]).
